Source: US5118690A, “Pharmaceutical tetrahydroisoquinolines” (John Wyeth & Brother Limited, priority 1989, dated 1992)

Tests used:
GABAA receptor [1] = assay: antagonism at GABAA receptors: antagonism of GABA-induced depolarization of the isolated rat vagus nerve (Procedure 2); assay type: biochemical
Excerpt: (§1) Advantageously compounds of formula I appear to be selective in that they display little or no activity at GABAA receptors. The following test procedures were used to measure antagonist activity at (a) GABA autoreceptors by blockade of agonist-induced inhibition of potassium-evoked GABA release from rat cortex in vitro (Procedure 1); and (b) GABAA receptors by antagonism of agonist-induced depolarization of the isolated rat vagus nerve (Procedure 2):
Male Sprague-Dawley rats (250-400g) are killed by a blow to the head and cervical dislocation. The cervical vagus nerves are transferred into Krebs' solution at room temperature and the connective tissue sheath removed. The vagus nerves are placed in two-compartment Perspex baths to permit extracellular recording of agonist induced depolarizations. Each nerve projects from one compartment to the next by way of a grease filled slot, the grease serving to insulate the compartments from each other. […] One compartment is continuously perfused (5ml min^-1) with Krebs' solution at 27° C. to which agonist and antagonist drugs are added. […] Non-cumulative concentration-response curves to GABA (10^-6 to 3×10^-4 M) are obtained using a 5 min contact time and 10-20 min wash period and the effect of the test antagonist compound is measured by its ability to shift this concentration-response curve to the right.

GABA autoreceptor [2] = assay: antagonist activity at GABA autoreceptors by blockade of agonist (muscimol)-induced inhibition of potassium-evoked [3H]-GABA release from rat cortex slices in vitro (Procedure 1); assay type: biochemical; settings: for Antagonism at GABA autoreceptor pA2 values: Procedure 1, agonist muscimol, rat cerebral cortex slices; for IC50: inhibition of the effect of a single concentration of muscimol, read-out: IC50 value (GABA autoreceptor antagonism)
Excerpt: as §1
Slices (0.25×0.25×2.0 mm) of rat cerebral cortex are prepared using a McIlwain tissue chopper. The slices are incubated in Krebs-Henseleit solution containing [^3 H]-GABA (10^-7 M) in the presence of amino-oxyacetic acid (AOAA) for 20 minutes at 37° C., rinsed with 5ml aliquots of Krebs-Henseleit solution and transferred to 10 superfusion chambers (volume 300μl). The slices are continuously superfused with Krebs-Henseleit solution (0.4 ml min^-1) containing AOAA (10^-5 M) and fractions of the superfusate collected every 4 minutes. Transmitter release is induced by 4 minute exposure to a Krebs-Henseleit solution containing 25 mM potassium ion (with concomitant reduction in sodium to maintain osmolarity) after 68 […] and 92 (S2) minutes of superfusion. The antagonist compound under study is added to the superfusing medium 10 minutes prior to the first potassium stimulation and remains throughout the superfusion. The GABA autoreceptor is activated by adding the agonist muscimol 20 minutes before the second potassium stimulation. The residual radioactivity in the slices at the end of the experiment together with that in the superfusate. fractions is measured by liquid scintillation counting
Calculations: The amount of radioactivity in each fraction is expressed as a percentage of the total radioactivity in the tissue at the start of the respective collection period. The amount of radioactivity released above basal by the increased potassium is calculated and the ratio S2/S1 obtained. The S2/S1 ratio from muscimol-treated slices is expressed as a percentage of the control drug-free S2/S1 ratio. A dose-response curve for the agonist muscimol is constructed and the effect of antagonists is measured by their ability to displace this dose-response curve to the right. From this measurement a pA2 value can be calculated. Alternatively, an IC50 value for antagonists can be calculated by inhibiting the effect of a single concentration of muscimol with increasing concentrations of antagonist.

GABAA receptor [3] = settings: non-selective; cited from earlier work
[4] = known; cited from earlier work
GABA autoreceptor [5] = settings: previously shown; cited from earlier work

With `COc1cc2c(cc1OC)[C@H]([C@@H]1CCCO1)NCC2` (relative stereo) [A, 1RS,2'SR-1-(2-Tetrahydrofuranyl)-1,2,3,4-tetrahydro-6,7 dimethoxyisoquinoline] the “Antagonism at GABAA receptors” value (GABAA receptor [1]; at 10^-4 M) was “inactive” and the “Antagonism at GABA autoreceptor pA2 values” (GABA autoreceptor [2]) was 7.0.

`Oc1ccc(C2NCCc3cc(O)c(O)cc32)cc1` (stereo not drawn) [Example 12, 1-(4-Hydroxyphenyl)-6,7-dihydroxy-1,2,3,4-tetrahydroisoquinoline] gave an IC50 (GABA autoreceptor [2]) of 480 nM.

With `c1ccc2c(c1)CCN[C@H]2[C@@H]1CCCO1` (single isomer, unassigned) [(-) enantiomer of Compound C] the IC50 (GABA autoreceptor [2]) was 20 nM.

Work on `c1ccc2c(c1)CCN[C@H]2[C@@H]1CCCO1` (single isomer, unassigned) [(+) isomer of Compound C] yielded an IC50 (GABA autoreceptor [2]) of 8600 nM.

In the case of `COc1cc2c(cc1OC)[C@H]([C@H]1CCCO1)NCC2` (relative stereo) [B, 1RS,2'RS-1-(2-Tetrahydrofuranyl) -1,2,3,4- Tetrahydro-6,7-dimethoxyisoquinoline], the “Antagonism at GABA autoreceptor pA2 values” (GABA autoreceptor [2]) is reported as 5.2.

For `c1ccc2c(c1)CCN[C@H]2[C@@H]1CCCO1` (relative stereo) [Compound C, 1RS, 2'SR-1-(2-Tetrahydrofuranyl)-1,2,3,4-tetrahydroisoquinoline], the “Antagonism at GABA autoreceptor pA2 values” (GABA autoreceptor [2]) was 8.5.

In the case of `CN1CCc2ccccc2[C@@H]1[C@@H]1CCCO1` (relative stereo) [Compound D, 1RS, 2'SR-1-(2-Tetrahydrofuranyl)-2-methyl-1,2,3,4-tetrahydroisoquinoline], the “Antagonism at GABAA receptors” value (GABAA receptor [1]; at 10^-5 M) is reported as “inactive” and the “Antagonism at GABA autoreceptor pA2 values” (GABA autoreceptor [2]) is reported as 9.2.

`CN1CCc2ccccc2[C@@H]1[C@@H]1CCCO1` (single isomer, unassigned) [(+) isomer of Compound D, (+)1R*,2'S*-1-(2-tetrahydrofuranyl)-2-methyl-1,2,3,4-tetrahydroisoquinoline] gave an IC50 (GABA autoreceptor [2]) of 2.7 nM.

Work on `CN1CCc2ccccc2[C@@H]1[C@@H]1CCCO1` (single isomer, unassigned) [(-) isomer of Compound D, (-) 1R*,2'S*-1-(2-tetrahydrofuranyl)-2-methyl-1,2,3,4-tetrahydroisoquinoline] yielded an IC50 (GABA autoreceptor [2]) of 260 nM.

For picrotoxin, the “activity at GABAA receptor” value (GABAA receptor [3]) is given as “also active at the GABAA receptor”, the “convulsant action” value [4] is given as “known convulsants” and the “activity at GABA autoreceptor” value (GABA autoreceptor [5]) is given as “antagonists at the GABA autoreceptor”.

In the case of `CN1CCc2cc3c(cc2[C@H]1[C@@H]1OC(=O)c2c1ccc1c2OCO1)OCO3` [bicuculline], the “activity at GABAA receptor” value (GABAA receptor [3]) is given as “also active at the GABAA receptor”, the “convulsant action” value [4] is given as “known convulsants” and the “activity at GABA autoreceptor” value (GABA autoreceptor [5]) is given as “antagonists at the GABA autoreceptor”.

With `c1csc(C2NCCc3ccccc32)c1` (racemic) [E, 1,2,3,4-Tetrahydro-1-(2-thienyl)isoquinoline] the “Antagonism at GABA autoreceptor pA2 values” (GABA autoreceptor [2]) was 8.4.
